Laboratory results taken from ChEMBL document CHEMBL1201862, “PubChem BioAssay data set” (2004).
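1) Cells in 96-well plates. 2) Compound, 48 h, 5 concentrations. 3) Linear interpolation between surrounding doses. 4) Unreached endpoint = highest concentration. At the GI50, growth is halved.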 The source made the active and inactive calls. No stated cut-off is given here; in the data, active = GI50 up to about 1.1 µM and inactive = higher.

Experiments:
Assay in all cases: inhibition of tumour cell growth, NCI panel, 48 h
SW-620 = test system: SW-620
HOP-18 = test system: HOP-18
DU-145 = test system: DU-145
M19-MEL = test system: M19-MEL
A549 = test system: A549
NCI-H23 = test system: NCI-H23
SNB-75 = test system: SNB-75
MCF7 = test system: MCF7
K562 = test system: K562
SK-MEL-28 = test system: SK-MEL-28
KM-20L2 = test system: KM-20L2
U-251 = test system: U-251
IGROV-1 = test system: IGROV-1
OVCAR-5 = test system: OVCAR-5
HL-60 = test system: HL-60
SK-MEL-2 = test system: SK-MEL-2
SNB-78 = test system: SNB-78
786-0 = test system: 786-0
LXFL 529 = test system: LXFL 529
DLD-1 = test system: DLD-1
NCI-H226 = test system: NCI-H226
HCT-116 = test system: HCT-116
CCRF-CEM = test system: CCRF-CEM
UO-31 = test system: UO-31
HOP-62 = test system: HOP-62
UACC-62 = test system: UACC-62
SN12C = test system: SN12C
HCT-15 = test system: HCT-15
NCI-H460 = test system: NCI-H460
HCC 2998 = test system: HCC 2998
DMS-114 = test system: DMS-114
TK-10 = test system: TK-10
SF-539 = test system: SF-539
SNB-19 = test system: SNB-19
Malme-3M = test system: Malme-3M
ACHN = test system: ACHN
MOLT-4 = test system: MOLT-4
SF-295 = test system: SF-295
A498 = test system: A498
OVCAR-8 = test system: OVCAR-8
KM12 = test system: KM12
HT-29 = test system: HT-29
RXF 393 = test system: RXF 393
COLO 205 = test system: COLO 205
SF-268 = test system: SF-268
HOP-92 = test system: HOP-92
SR = test system: SR
OVCAR-3 = test system: OVCAR-3
OVCAR-4 = test system: OVCAR-4
RPMI-8226 = test system: RPMI-8226
SK-MEL-5 = test system: SK-MEL-5
LOX IMVI = test system: LOX IMVI
EKVX = test system: EKVX
CAKI-1 = test system: CAKI-1
UACC-257 = test system: UACC-257
SK-OV-3 = test system: SK-OV-3
M14 = test system: M14
DMS-273 = test system: DMS-273
NCI-H522 = test system: NCI-H522

## O=C1C=C[C@@]23C[C@@H](NC4=C2C2=NCCc5c[nH]c(c52)C4=O)SC3=C1
SW-620
  GI50: 3.15 µM (inactive)
HOP-18
  GI50: 16.7 µM (inactive)
DU-145
  GI50: 18.2 µM (inactive)
M19-MEL
  GI50: 2.03 µM (inactive)
A549
  GI50: 14.6 µM (inactive)
NCI-H23
  GI50: 3.49 µM (inactive)
SNB-75
  GI50: 19.8 µM (inactive)
MCF7
  GI50: 3.82 µM (inactive)
K562
  GI50: 4.74 µM (inactive)

## CN/N=C(\C(=O)Nc1ccc([N+](=O)[O-])cc1[N+](=O)[O-])C1NC(=O)NC1=O (stereo not given)
SK-MEL-28
  GI50: > 100 µM (inactive)
KM-20L2
  GI50: > 100 µM (inactive)
U-251
  GI50: 27.9 µM (inactive)
IGROV-1
  GI50: > 100 µM (inactive)
OVCAR-5
  GI50: > 100 µM (inactive)
HL-60
  GI50: > 100 µM (inactive)
SK-MEL-2
  GI50: > 100 µM (inactive)
SNB-78
  GI50: > 100 µM (inactive)
786-0
  GI50: > 100 µM (inactive)
LXFL 529
  GI50: > 100 µM (inactive)
SW-620
  GI50: 40.3 µM (inactive)
DLD-1
  GI50: > 100 µM (inactive)
NCI-H226
  GI50: > 100 µM (inactive)
HCT-116
  GI50: > 100 µM (inactive)
CCRF-CEM
  GI50: > 100 µM (inactive)
UO-31
  GI50: > 100 µM (inactive)
HOP-62
  GI50: > 100 µM (inactive)
HOP-18
  GI50: > 100 µM (inactive)
UACC-62
  GI50: > 100 µM (inactive)
SN12C
  GI50: > 100 µM (inactive)
HCT-15
  GI50: > 100 µM
NCI-H460
  GI50: > 100 µM (inactive)
HCC 2998
  GI50: > 100 µM (inactive)
DMS-114
  GI50: > 100 µM (inactive)
TK-10
  GI50: > 100 µM (inactive)
SF-539
  GI50: > 100 µM (inactive)
SNB-19
  GI50: > 100 µM (inactive)
Malme-3M
  GI50: > 100 µM (inactive)
ACHN
  GI50: > 100 µM (inactive)
MOLT-4
  GI50: > 100 µM (inactive)
SF-295
  GI50: > 100 µM (inactive)
A498
  GI50: > 100 µM (inactive)
OVCAR-8
  GI50: > 100 µM (inactive)
KM12
  GI50: > 100 µM (inactive)
M19-MEL
  GI50: > 100 µM (inactive)
A549
  GI50: > 100 µM (inactive)
HT-29
  GI50: 80.5 µM (inactive)
RXF 393
  GI50: > 100 µM (inactive)
COLO 205
  GI50: > 100 µM (inactive)
SF-268
  GI50: > 100 µM (inactive)
HOP-92
  GI50: > 100 µM (inactive)
SR
  GI50: > 100 µM (inactive)
OVCAR-3
  GI50: > 100 µM (inactive)
NCI-H23
  GI50: > 100 µM (inactive)
OVCAR-4
  GI50: > 100 µM (inactive)
SNB-75
  GI50: > 100 µM (inactive)
RPMI-8226
  GI50: > 100 µM (inactive)
SK-MEL-5
  GI50: > 100 µM (inactive)
LOX IMVI
  GI50: 38.1 µM (inactive)
EKVX
  GI50: > 100 µM (inactive)
CAKI-1
  GI50: > 100 µM (inactive)
UACC-257
  GI50: > 100 µM (inactive)
SK-OV-3
  GI50: > 100 µM (inactive)
K562
  GI50: > 100 µM (inactive)
M14
  GI50: > 100 µM (inactive)
DMS-273
  GI50: 32.2 µM (inactive)

## COc1ccc2c(=O)oc3c(OC)cc(CCN(C)C)c4c(=O)oc1c2c34
KM-20L2
  GI50: 14.9 µM (inactive)
U-251
  GI50: 14.4 µM (inactive)
OVCAR-5
  GI50: 17.9 µM (inactive)
SK-MEL-2
  GI50: 17.7 µM (inactive)
SNB-78
  GI50: 14.3 µM (inactive)
LXFL 529
  GI50: 13.3 µM (inactive)
DLD-1
  GI50: 22.8 µM (inactive)
NCI-H226
  GI50: 17.9 µM (inactive)
CCRF-CEM
  GI50: 1.49 µM (inactive)
HOP-62
  GI50: 14.2 µM (inactive)
HOP-18
  GI50: 14.4 µM (inactive)
UACC-62
  GI50: 17.9 µM (inactive)
SN12C
  GI50: 13.8 µM (inactive)
HCC 2998
  GI50: 12.4 µM (inactive)
DMS-114
  GI50: 12.1 µM (inactive)
SNB-19
  GI50: 14.3 µM (inactive)
Malme-3M
  GI50: 14.5 µM (inactive)
MOLT-4
  GI50: 11.5 µM (inactive)
A498
  GI50: 20.5 µM (inactive)
OVCAR-8
  GI50: 10.4 µM (inactive)
M19-MEL
  GI50: 14.5 µM (inactive)
COLO 205
  GI50: 4.94 µM (inactive)
SF-268
  GI50: 12.9 µM (inactive)
OVCAR-3
  GI50: 16.1 µM (inactive)
NCI-H23
  GI50: 17.8 µM (inactive)
NCI-H522
  GI50: 12.5 µM (inactive)
SK-MEL-5
  GI50: 12.3 µM (inactive)
K562
  GI50: 2.56 µM (inactive)
M14
  GI50: 17.4 µM (inactive)
DMS-273
  GI50: 15.6 µM (inactive)
